Assay results from US20230024554A1, “METHOD OF CHARACTERIZING THE BINDING CHARACTERISTICS BETWEEN A PEPTIDE OF INTEREST AND MHC MOLECULES” (Immatics Biotechnologies GmbH, priority 2021, published 2023).
Ends that are not written are not given here.

Key:
[1] = test system: T2 cells; test: Peptide loading of T2 cells with KLK3 peptide isotopologues; absolute pMHC copy numbers by BB7.2 immunoprecipitation and LC/MS; assay type: cell-based, human; conditions: T2 cells loaded at 0.1 μg/mL (~81 nM) peptide, 2 h incubation
Procedure: In order to translate detected relative ion intensities into an absolute measure, isotopologue-specific external calibration curves were acquired in two technical replicates. Therefore, a total of six different isotopologues (Table 1; reconstituted as described above) were mixed to a final concentration of 20 pmol μL^−1. This stock was subsequently further titrated in 5% formic acid prior to LC/MS analysis. The internal standard KLK3 peptide_L2P5 was added at a constant amount of 5 fmol per LC/MS injection. Samples were separated by reversed-phase chromatography (nanoAcquity UPLC, Waters, Milford, Mass.) using ACQUITY UPLC BEH C18 columns (75 μm×250 mm, Waters, Milford, Mass.) and a gradient ranging from 1 to 34.5% ACN over the course of 35 min. Mass spectrometry was performed on an online coupled Orbitrap Fusion Tribrid mass spectrometer (Thermo Fisher Scientific, Waltham, Mass.) in scheduled parallel reaction monitoring (sPRM) mode following collisional-induced dissociation (CID) of selected precursor ions. Subsequent peak boundary integration was performed in Skyline (MacLean et al., 2010).
The T2 cell line was obtained from DSMZ (ACC 598, lot #2). Cells were cultured in RPMI-1640 medium (Gibco, #A1049101) supplemented with 10% heat-inactivated FBS (Gibco, #10270106) in absence of antibiotics, at 37° C. in a humidified atmosphere containing 5% C02. […]

[2] = test system: T98G cells; test: Peptide loading of T98G cells with PRAME peptide isotopologues; absolute copy numbers by AbsQuant (immunoprecipitation and LC/MS); assay type: cell-based; conditions: peptide-loaded T98G cells; 1 nM is ~0.001 μg/mL
Procedure: (§1) In order to translate detected relative ion intensities into an absolute measure, isotopologue-specific external calibration curves were acquired in two technical replicates. Therefore, a total of seven different isotopologues (Table 2; reconstituted as described above) were mixed to a final concentration of 20 pmol μL^−1. This stock was subsequently further titrated in 5% formic acid prior to LC/MS analysis. The internal standard PRAME peptide_L3L6 was added at a constant amount of 100 fmol per LC/MS injection. Samples were separated by reversed-phase chromatography (nanoAcquity UPLC, Waters, Milford, Mass.) using ACQUITY UPLC BEH C18 columns (75 μm×250 mm, Waters, Milford, Mass.) and a gradient ranging from 1 to 34.5% ACN over the course of 35 min. […]
(§2) The functional analysis of PRAME-loaded T98G cells was assessed in a co-culture setup. […]
(§3) In brief, 2.5×10^7 T98G (or 2×10^7 Hs695T) cells were incubated in 40 ml DMEM+10% FCS supplemented with the respective concentration of peptide for 2 h at 37° C., 5% C02. […] By adding specific substrate, the amount of LDH present in the supernatant was determined by measuring the colorimetric signal in a microplate reader. […]

[3] = test system: Hs695T cells; test: Peptide loading of Hs695T cells with PRAME peptide isotopologues; absolute copy numbers by AbsQuant (immunoprecipitation and LC/MS); assay type: cell-based; conditions: peptide-loaded Hs695T cells; 1 nM is ~0.001 μg/mL
Procedure: as §1, §2, §3

Row | Substance | absolute peptide abundance [1] | loading concentration from which copy numbers are detectable [2] [nM] | loading concentration from which copy numbers are detectable [3] [nM]
1 | SL*F*HPEDTGQV* [KLK3 peptide L2F3V 11] | ~10,000 copies per cell | – | –
2 | SLLQHLIGL (not fully specified; listed as Homo sapiens) [PRAME peptide, PRAME-derived MHC-restricted peptide, loaded as isotopologues] | – | ≥ 1 | ≥ 1
